Assay results: patent publication US20260062422A1 (Halda Therapeutics OpCo, Inc., priority 2022, published 2026)

Columns and labels:
[1] = biological target: T1, BRD4-BD1 (Homo sapiens, UniProt O60885); test: bromoKdELECT assay for binding affinity to BRD4-BD1; settings: Table 6
T1 construct: made in house; host or cells: T7 phage grown in an E. coli host derived from BL21
Description: (§1) Compounds were tested using a bromoKdELECT assay. T7 phage strains displaying bromodomains were grown in parallel in 24-well blocks in an E. coli host derived from the BL21 strain. E. coli were grown to log-phase and infected with T7 phage from a frozen stock (multiplicity of infection=0.4) and incubated with shaking at 32° C. until lysis (90-150 minutes). The lysates were centrifuged (5,000×g) and filtered (0.2 μm) to remove cell debris. Streptavidin-coated magnetic beads were treated with biotinylated small molecule or acetylated peptide ligands for 30 minutes at room temperature to generate affinity resins for bromodomain assays. The liganded beads were blocked with excess biotin and washed with blocking buffer (SeaBlock (Pierce), 1% BSA, 0.05% Tween 20, 1 mM DTT) to remove unbound ligand and to reduce nonspecific phage binding. Binding reactions were assembled by combining bromodomains, liganded affinity beads, and test compounds in 1× binding buffer (17% SeaBlock, 0.33×PBS, 0.04% Tween 20, 0.02% BSA, 0.004% Sodium azide, 7.4 mM DTT). Test compounds were prepared as 1000× stocks in 100% DMSO. Kds were determined using an 11-point 3-fold compound dilution series with one DMSO control point. All compounds for Kd measurements are distributed by acoustic transfer (non-contact dispensing) in 100% DMSO. The compounds were then diluted directly into the assays such that the final concentration of DMSO was 0.09%. All reactions performed in polypropylene 384-well plates. Each was a final volume of 0.02 ml. The assay plates were incubated at room temperature with shaking for 1 hour and the affinity beads were washed with wash buffer (1×PBS, 0.05% Tween 20). The beads were then resuspended in elution buffer (1×PBS, 0.05% Tween 20, 2 M non-biotinylated affinity ligand) and incubated at room temperature with shaking for 30 minutes. The bromodomain concentration in the eluates was measured by qPCR.

[2] = biological target: T2, androgen receptor (Homo sapiens, UniProt P10275); test: Assay for binding affinity to androgen receptor ([3H]methyltrienolone radioligand, cell cytosol); settings: 1 nM [3H]methyltrienolone, 24 hours at 4° C., Table 5
T2 sequence (P10275 1-920 T878A): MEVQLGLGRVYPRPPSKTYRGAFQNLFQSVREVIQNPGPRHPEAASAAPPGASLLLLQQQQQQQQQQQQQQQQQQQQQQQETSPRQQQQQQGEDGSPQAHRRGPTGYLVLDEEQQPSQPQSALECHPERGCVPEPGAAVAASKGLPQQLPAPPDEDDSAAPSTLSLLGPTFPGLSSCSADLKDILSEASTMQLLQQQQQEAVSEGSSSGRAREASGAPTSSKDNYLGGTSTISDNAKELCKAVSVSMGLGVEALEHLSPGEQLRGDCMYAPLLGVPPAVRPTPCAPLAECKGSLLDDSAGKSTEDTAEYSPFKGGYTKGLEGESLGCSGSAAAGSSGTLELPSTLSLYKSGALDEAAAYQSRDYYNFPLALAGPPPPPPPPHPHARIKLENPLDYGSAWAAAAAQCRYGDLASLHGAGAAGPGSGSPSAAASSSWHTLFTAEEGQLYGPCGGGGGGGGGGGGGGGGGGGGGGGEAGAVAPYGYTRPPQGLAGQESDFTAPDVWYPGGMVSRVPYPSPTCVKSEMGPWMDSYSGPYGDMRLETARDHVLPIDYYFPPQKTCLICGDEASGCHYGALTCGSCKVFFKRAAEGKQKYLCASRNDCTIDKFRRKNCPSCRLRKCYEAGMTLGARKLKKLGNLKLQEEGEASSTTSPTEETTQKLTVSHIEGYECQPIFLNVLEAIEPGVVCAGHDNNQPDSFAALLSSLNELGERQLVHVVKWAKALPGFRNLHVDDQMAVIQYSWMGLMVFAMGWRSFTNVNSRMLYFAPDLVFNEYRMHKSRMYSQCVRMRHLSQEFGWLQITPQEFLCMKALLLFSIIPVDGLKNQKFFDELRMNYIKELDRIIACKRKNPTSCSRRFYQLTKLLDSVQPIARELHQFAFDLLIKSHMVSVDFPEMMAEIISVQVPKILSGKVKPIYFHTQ
Description: Fractions of cell cytosol ([…] cell/point) were incubated for 24 hours at 4° C. with 1 nM [^3H]methyltrienolone in the absence or presence of the test compound in a buffer containing 25 mM Hepes-Tris (pH 7.4), 1 mM EDTA, 10 mM Na2MoO4, 2 mM DTT, 5 μM triamcinolone acetonide, and 10% glycerol. Nonspecific binding was determined in the presence of 1 μM testosterone. Following incubation, the samples were filtered rapidly under vacuum through glass fiber filters (GF/B, Packard) presoaked with 0.3% PEI and rinsed several times with ice-cold 50 mM Tris-HCl using a 96-sample cell harvester (Unifilter, Packard). The filters were dried then counted for radioactivity in a scintillation counter (Topcount, Packard) using a scintillation cocktail (Microscint 0, Packard). The results are expressed as a percent inhibition of the control radioligand specific binding. The standard reference compound is testosterone, which is tested in each experiment at several concentrations to obtain a competition curve from which its IC50 is calculated.

[3] = tested on: T-Rex 293 cell line SC3 cells lacking increased expression of androgen receptor protein; test: Cellular growth inhibition, T-Rex 293 SC3 cells without doxycycline, CellTiter-Glo; format: cell-based; settings: 72 h, T-Rex 293 SC3 cells not exposed to doxycycline, CellTiter-Glo 2.0
Outline: (§2)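 Luminescence read-out (CellTiter-Glo 2.0) after 72 h compound exposure; GI50 by four-parameter nonlinear regression, baseline set at zero luminescence. SC3 cells, a doxycycline-inducible wild-type AR clone of T-Rex 293, were cultured ±10 ng/mL doxycycline in charcoal-dextran FBS medium.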

[4] = tested on: T-Rex 293 cell line SC3 cells having increased expression of androgen receptor protein due to exposure to doxycycline; test: Cellular growth inhibition, T-Rex 293 SC3 cells with doxycycline (androgen receptor induced), CellTiter-Glo; format: cell-based; settings: 72 h, T-Rex 293 SC3 cells with 10 ng/mL doxycycline (increased androgen receptor expression)
Outline: as §2

[5] = biological target: T3, BRD4-BD2 (Homo sapiens, UniProt O60885); test: bromoKdELECT assay for binding affinity to BRD4-BD2; settings: Table 7
T3 construct: made in house; host or cells: T7 phage grown in an E. coli host derived from BL21
Description: as §1, with “2 μM” for “2 M”

[6] = tested on: VCaP cells; test: Cellular growth inhibition assay for VCaP cells, CellTiter-Glo; format: cell-based, human; settings: Homo sapiens, VCaP, 72 h, 72 hours treatment, CellTiter-Glo 2.0
Outline: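 GI50 values come from four-parameter curve fits of luminescence data normalized to a zero baseline. Compound, in medium with 0.5% DMSO, was added one day after plating and left for 72 h before CellTiter-Glo 2.0 addition.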

[7] = biological target: T4, progesterone receptor ligand binding domain (LBD) (Homo sapiens, UniProt P06401); test: FP assay (PolarScreen Progesterone Receptor Competitor Assay) for binding to progesterone receptor LBD; settings: GST-tagged PR LBD, Fluormone tracer, fluorescence polarization, 2 hours; Table 17
T4 construct: GST-tagged PR LBD, Fluormone tracer, and compound were mixed; purchased Life Technologies A15905 or a15906
T4 sequence (P06401 679-913 limits assumed): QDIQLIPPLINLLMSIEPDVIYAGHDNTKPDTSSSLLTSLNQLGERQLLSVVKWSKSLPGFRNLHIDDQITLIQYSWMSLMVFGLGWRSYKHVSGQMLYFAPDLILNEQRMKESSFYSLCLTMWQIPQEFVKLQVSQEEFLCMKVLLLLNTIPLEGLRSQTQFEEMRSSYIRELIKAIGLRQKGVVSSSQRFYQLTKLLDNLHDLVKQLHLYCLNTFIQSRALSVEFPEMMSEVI
Description: Compounds were tested using the PolarScreen™ Progesterone Receptor Competitor Assay Kit (Life Technologies Cat #A15905 or a15906), as per the manufacturer's instructions. Briefly, GST-tagged PR LBD, Fluormone tracer, and compound were mixed and incubated for 2 hours at room temperature in the dark. Following incubation, the plates were spun at 3000×g for 30 seconds, then sealed with an optical adhesive cover, and fluorescence polarization was measured using appropriate excitation and emission filters with an EnVision Plate Reader (Perkin Elmer). Compound concentration vs. mP value were plotted in Prism (GraphPad). A four-parameter non-linear regression curve fit was applied to dose-response data to determine the half-maximal inhibitory concentration (IC50) for each test compound.

[8] = tested on: T47D cells; test: Cellular growth inhibition assay for T47D cells, CellTiter-Glo; format: cell-based, human; settings: Homo sapiens, T47D, 72 h, 72 hours treatment, CellTiter-Glo 2.0 cell viability
Outline: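 Cells are plated at 3000/well and allowed 24 h before treatment. Test compound in medium containing 0.5% DMSO is then added, with DMSO-only wells as negative control, and plates are incubated 72 h at 37 °C. ATP luminescence (CellTiter-Glo 2.0) is then fitted to four parameters to derive GI50.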

[9] = biological target: T5, progesterone receptor (Homo sapiens, UniProt P06401); test: PR Human Progesterone NHR Binding (Agonist Radioligand) Assay, T47D cytosol; settings: T47D cytosolic fractions, 0.5 nM [3H]progesterone, 1 hour at 4° C., Table 16
T5 construct: host or cells: T47D cells (cytosolic fraction)
T5 sequence (P06401 1-933): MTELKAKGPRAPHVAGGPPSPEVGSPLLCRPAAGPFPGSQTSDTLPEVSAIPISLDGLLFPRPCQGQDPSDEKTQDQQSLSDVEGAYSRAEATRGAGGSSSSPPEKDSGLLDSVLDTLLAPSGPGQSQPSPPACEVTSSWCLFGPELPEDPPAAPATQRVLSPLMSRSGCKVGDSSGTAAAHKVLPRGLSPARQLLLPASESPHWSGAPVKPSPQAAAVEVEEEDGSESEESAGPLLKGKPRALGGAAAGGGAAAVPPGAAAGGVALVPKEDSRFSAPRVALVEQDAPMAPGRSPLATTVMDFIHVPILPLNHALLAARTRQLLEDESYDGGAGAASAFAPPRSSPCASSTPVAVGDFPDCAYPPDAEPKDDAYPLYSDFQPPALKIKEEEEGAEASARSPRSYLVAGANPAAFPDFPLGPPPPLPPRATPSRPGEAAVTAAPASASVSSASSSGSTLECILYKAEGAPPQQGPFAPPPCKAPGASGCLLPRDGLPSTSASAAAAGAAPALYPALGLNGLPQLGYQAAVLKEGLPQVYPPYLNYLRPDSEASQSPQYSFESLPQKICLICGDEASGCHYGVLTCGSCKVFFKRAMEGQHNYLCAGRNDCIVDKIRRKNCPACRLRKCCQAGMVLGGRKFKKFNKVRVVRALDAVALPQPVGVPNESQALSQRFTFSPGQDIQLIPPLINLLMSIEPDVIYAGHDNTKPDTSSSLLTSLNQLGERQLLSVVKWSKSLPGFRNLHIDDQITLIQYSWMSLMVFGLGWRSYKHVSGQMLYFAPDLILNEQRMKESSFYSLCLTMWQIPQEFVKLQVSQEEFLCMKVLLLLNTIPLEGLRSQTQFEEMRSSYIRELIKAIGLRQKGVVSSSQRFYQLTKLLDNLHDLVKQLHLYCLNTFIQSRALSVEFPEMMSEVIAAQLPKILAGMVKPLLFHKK
Description: Compounds were tested using the PR Human Progesterone NHR Binding (Agonist Radioligand) Assay, Cerep at Eurofins Discovery using a modified version of the protocol from Sarup et al. (Cancer Res 1988; 48:5071-5078). Briefly, cytosolic fractions of T47D cells were incubated with 0.5 nM [^3H]progesterone for 1 hour at 4° C. in the absence or presence of the test compound. Nonspecific binding was determined in the presence of 1 μM promegestone. Reactions were subjected to scintillation counting. Results are expressed as a percent inhibition of the control radioligand specific binding.

Kd [1] | Kd [2] | Kd [5] | GI50 [6] | IC50 [7] | GI50 [8] | Ki [9] | SMILES | GI50 [3] | GI50 [4]
500 to 2500 nM | < 50 nM | – | – | – | – | – | Cc1sc2c(c1C)C(c1ccc(Cl)cc1)=N[C@@H](CC(=O)NCCOCCOCCOC1CCCN(c3ncc(C(=O)N[C@H]4C(C)(C)[C@H](Oc5ccc(C#N)c(Cl)c5)C4(C)C)cn3)C1)c1nnc(C)n1-2 (some centres unmarked) [Compound I-15] | 1500 to 3000 nM | < 500 nM
500 to 2500 nM | – | < 50 nM | – | – | – | – | Cc1sc2c(c1C)C(c1ccc(Cl)cc1)=N[C@@H](CC(=O)NCCOCCOCCOC1CCN(c3ncc(C(=O)N[C@H]4C(C)(C)[C@H](Oc5ccc(C#N)c(Cl)c5)C4(C)C)cn3)C1)c1nnc(C)n1-2 (some centres unmarked) [Compound I-16] | 1500 to 3000 nM | < 500 nM
– | – | – | < 500 nM | 50 to 500 nM | 500 to 1500 nM | – | Cc1sc2c(c1C)C(c1ccc(CCCOC3CCN(c4ncc5c(n4)CN([C@H]4C(C)(C)[C@H](Oc6ccc(C#N)c(Cl)c6)C4(C)C)C5=O)CC3)cc1)=NC(Cc1ncco1)c1nnc(C)n1-2 (some centres unmarked) [Compound I-134] | – | –
– | 50 to 500 nM | – | – | – | < 500 nM | < 50 nM | Cc1sc2c(c1C)C(c1ccc(N3CC(CC4CN(c5cnc(C(=O)N[C@H]6C(C)(C)[C@H](Oc7ccc(C#N)c(Cl)c7)C6(C)C)cn5)C4)C3)cc1)=N[C@@H](C)c1nnc(C)n1-2 [Compound I-503] | – | –
